# Assay results as given in ChEMBL document CHEMBL4002623, “Synthesis and in vitro activity of dicationic indolyl diphenyl ethers as novel potent antibiotic agents against drug-resistant bacteria” (Bioorg Med Chem Lett, 2017).
# Columns and labels:
# [1] = tested on: Staphylococcus aureus; assay: Antibacterial activity against methicillin-resistant Staphylococcus aureus ATCC 33591 by agar dilution method; type: functional
# [2] = tested on: Staphylococcus aureus; assay: Antibacterial activity against methicillin-sensitive Staphylococcus aureus ATCC 29213 by agar dilution method; type: functional
# [3] = tested on: Klebsiella aerogenes; assay: Antibacterial activity against Enterobacter aerogenes 45102 by agar dilution method; type: functional
# [4] = Cytotoxicity against HEK293T cells after 48 hrs by MTS assay; type: cell-based, HEK-293T; details: human
# [5] = tested on: Enterococcus faecium; assay: Antibacterial activity against vancomycin-sensitive Enterococcus faecium 09-10 by agar dilution method; type: functional
# [6] = tested on: Proteus vulgaris; assay: Antibacterial activity against Proteus vulgaris ATCC 29905 by agar dilution method; type: functional
# [7] = tested on: Staphylococcus epidermidis; assay: Antibacterial activity against methicillin-resistant Staphylococcus epidermidis 09-3 by agar dilution method; type: functional
# [8] = tested on: Staphylococcus aureus; assay: Antibacterial activity against methicillin-sensitive Staphylococcus aureus 15 by agar dilution method; type: functional
# [9] = tested on: Enterococcus faecalis; assay: Antibacterial activity against vancomycin-sensitive Enterococcus faecalis 09-8 by agar dilution method; type: functional
# [10] = tested on: Enterococcus faecium; assay: Antibacterial activity against vancomycin-resistant Enterococcus faecium 05-8 by agar dilution method; type: functional
# [11] = tested on: Providencia rettgeri; assay: Antibacterial activity against Providencia rettgeri ATCC 31052 by agar dilution method; type: functional
# [12] = tested on: Klebsiella pneumoniae; assay: Antibacterial activity against extended-spectrum beta-lactamase-negative Klebsiella pneumoniae 7 by agar dilution method; type: functional
# [13] = tested on: Enterococcus faecalis; assay: Antibacterial activity against vancomycin-resistant Enterococcus faecalis ATCC 51299 by agar dilution method; type: functional
# [14] = tested on: Staphylococcus aureus; assay: Antibacterial activity against methicillin-resistant Staphylococcus aureus 09-13 by agar dilution method; type: functional
# [15] = tested on: Morganella morganii; assay: Antibacterial activity against Morganella morganii ATCC 25830 by agar dilution method; type: functional
# [16] = tested on: Klebsiella pneumoniae; assay: Antibacterial activity against Klebsiella pneumoniae ATCC BAA-2146 expressing NDM-1 by agar dilution method; type: functional
# [17] = tested on: Klebsiella pneumoniae; assay: Antibacterial activity against extended-spectrum beta-lactamase-negative Klebsiella pneumoniae 09-8 by agar dilution method; type: functional
# [18] = tested on: Proteus mirabilis; assay: Antibacterial activity against Proteus mirabilis 09-1 by agar dilution method; type: functional
# [19] = tested on: Pseudomonas aeruginosa; assay: Antibacterial activity against Pseudomonas aeruginosa PAO1 by agar dilution method; type: functional
# [20] = tested on: Escherichia coli; assay: Antibacterial activity against extended-spectrum beta-lactamase-negative Escherichia coli 09-20 by agar dilution method; type: functional
# [21] = tested on: Serratia marcescens; assay: Antibacterial activity against Serratia marcescens 41002 by agar dilution method; type: functional
# [22] = tested on: Klebsiella pneumoniae; assay: Antibacterial activity against extended-spectrum beta-lactamase-positive Klebsiella pneumoniae 09-25 by agar dilution method; type: functional
# [23] = tested on: Enterococcus faecalis; assay: Antibacterial activity against vancomycin-sensitive Enterococcus faecalis ATCC 29212 by agar dilution method; type: functional
# [24] = tested on: Escherichia coli; assay: Antibacterial activity against extended-spectrum beta-lactamase-positive Escherichia coli 09-1 by agar dilution method; type: functional
# [25] = tested on: Enterococcus faecalis; assay: Antibacterial activity against vancomycin-resistant Enterococcus faecalis 09-9 by agar dilution method; type: functional
# [26] = tested on: Staphylococcus epidermidis; assay: Antibacterial activity against methicillin-sensitive Staphylococcus epidermidis ATCC 12228 by agar dilution method; type: functional
# [27] = tested on: Staphylococcus epidermidis; assay: Antibacterial activity against methicillin-sensitive Staphylococcus epidermidis 09-9 by agar dilution method; type: functional
# [28] = tested on: Salmonella typhi; assay: Antibacterial activity against Salmonella typhi H901 by agar dilution method; type: functional, Salmonella enterica subsp. enterica serovar Typhi; details: Salmonella enterica
# [29] = tested on: Escherichia coli; assay: Antibacterial activity against extended-spectrum beta-lactamase-negative Escherichia coli ATCC 25922 by agar dilution method; type: functional
# [30] = tested on: Enterobacter cloacae; assay: Antibacterial activity against Enterobacter cloacae 45301 by agar dilution method; type: functional
# [31] = tested on: Klebsiella pneumoniae; assay: Antibacterial activity against extended-spectrum beta-lactamase-positive Klebsiella pneumoniae ATCC 700603 by agar dilution method; type: functional
# [32] = tested on: Acinetobacter calcoaceticus; assay: Antibacterial activity against Acinetobacter calcoaceticus ATCC 19606 by agar dilution method; type: functional
# [33] = tested on: Pseudomonas aeruginosa; assay: Antibacterial activity against Pseudomonas aeruginosa 09-14 by agar dilution method; type: functional
# [34] = tested on: Staphylococcus aureus; assay: Antibacterial activity against methicillin-sensitive Staphylococcus aureus 09-6 by agar dilution method; type: functional
# [35] = tested on: Citrobacter freundii; assay: Antibacterial activity against Citrobacter freundii ATCC 43864 by agar dilution method; type: functional
# [36] = tested on: Enterococcus faecium; assay: Antibacterial activity against vancomycin-resistant Enterococcus faecium ATCC 700221 by agar dilution method; type: functional
# [37] = tested on: Pseudomonas aeruginosa; assay: Antibacterial activity against Pseudomonas aeruginosa ATCC 27853 by agar dilution method; type: functional
# [38] = tested on: Escherichia coli; assay: Antibacterial activity against extended-spectrum beta-lactamase-negative Escherichia coli 1515 by agar dilution method; type: functional
Structure (SMILES),MIC [1],MIC [2],MIC [3],CC50 at 48 h [4],MIC [5],MIC [6],MIC [7],MIC [8],MIC [9],MIC [10],MIC [11],MIC [12],MIC [13],MIC [14],MIC [15],MIC [16],MIC [17],MIC [18],MIC [19],MIC [20],other results
CCC(C)NC(=N)c1ccc2cc(-c3ccc(Oc4ccc(-c5cc6ccc(C(=N)NC(C)CC)cc6[nH]5)cc4)cc3)[nH]c2c1 (stereo unspecified),2 µg/mL,2 µg/mL,32 µg/mL,40.4 µg/mL,8 µg/mL,32 µg/mL,1 µg/mL,2 µg/mL,2 µg/mL,2 µg/mL,64 µg/mL,64 µg/mL,2 µg/mL,1 µg/mL,16 µg/mL,32 µg/mL,16 µg/mL,64 µg/mL,64 µg/mL,32 µg/mL,MIC [21]: 64 µg/mL; MIC [22]: 32 µg/mL; MIC [23]: 2 µg/mL; MIC [24]: 32 µg/mL; MIC [25]: 8 µg/mL; MIC [26]: 0.5 µg/mL; MIC [27]: 2 µg/mL; MIC [28]: 16 µg/mL; MIC [29]: 16 µg/mL; MIC [30]: 32 µg/mL; MIC [31]: 64 µg/mL; MIC [32]: 64 µg/mL; MIC [33]: 64 µg/mL; MIC [34]: 2 µg/mL; MIC [35]: 32 µg/mL; MIC [36]: 1 µg/mL; MIC [37]: 32 µg/mL; MIC [38]: 16 µg/mL
N=C(NC1CC1)c1ccc2cc(-c3ccc(Oc4ccc(-c5cc6ccc(C(=N)NC7CC7)cc6[nH]5)cc4)cc3)[nH]c2c1,4 µg/mL,4 µg/mL,128 µg/mL,36.9 µg/mL,8 µg/mL,> 128 µg/mL,2 µg/mL,4 µg/mL,4 µg/mL,4 µg/mL,> 128 µg/mL,> 128 µg/mL,4 µg/mL,4 µg/mL,128 µg/mL,> 128 µg/mL,> 128 µg/mL,> 128 µg/mL,> 128 µg/mL,128 µg/mL,MIC [21]: > 128 µg/mL; MIC [22]: > 128 µg/mL; MIC [23]: 4 µg/mL; MIC [24]: 128 µg/mL; MIC [25]: 8 µg/mL; MIC [26]: 1 µg/mL; MIC [27]: 4 µg/mL; MIC [28]: > 128 µg/mL; MIC [29]: 128 µg/mL; MIC [30]: > 128 µg/mL; MIC [31]: > 128 µg/mL; MIC [32]: > 128 µg/mL; MIC [33]: > 128 µg/mL; MIC [34]: 4 µg/mL; MIC [35]: > 128 µg/mL; MIC [36]: 4 µg/mL; MIC [37]: > 128 µg/mL; MIC [38]: 128 µg/mL
